Reference: patent US20100168102A9, “Amide Derivatives as Kinase Inhibitors” (Devgen NV, priority 2005, published 2010)

How the values were obtained:
human ROCKα/ROCKII mix = biological target: T1, human ROCKα/ROCKII mix (Homo sapiens, UniProt O75116); test: Biochemical assay for ROCK (fluorescence polarization, ROCK IMAP Kit)
T1 construct: purchased Upstate Biotechnology 14-451

PKC epsilon = biological target: T2, PKC epsilon (Homo sapiens, UniProt Q02156); test: Biochemical assay for PKC epsilon (fluorescence polarization, Protein Kinase C Assay Kit, Red); conditions: read-out: IC50 μM PKCε
T2 construct: purchased Invitrogen P2282
T2 sequence (Q02156 1-737): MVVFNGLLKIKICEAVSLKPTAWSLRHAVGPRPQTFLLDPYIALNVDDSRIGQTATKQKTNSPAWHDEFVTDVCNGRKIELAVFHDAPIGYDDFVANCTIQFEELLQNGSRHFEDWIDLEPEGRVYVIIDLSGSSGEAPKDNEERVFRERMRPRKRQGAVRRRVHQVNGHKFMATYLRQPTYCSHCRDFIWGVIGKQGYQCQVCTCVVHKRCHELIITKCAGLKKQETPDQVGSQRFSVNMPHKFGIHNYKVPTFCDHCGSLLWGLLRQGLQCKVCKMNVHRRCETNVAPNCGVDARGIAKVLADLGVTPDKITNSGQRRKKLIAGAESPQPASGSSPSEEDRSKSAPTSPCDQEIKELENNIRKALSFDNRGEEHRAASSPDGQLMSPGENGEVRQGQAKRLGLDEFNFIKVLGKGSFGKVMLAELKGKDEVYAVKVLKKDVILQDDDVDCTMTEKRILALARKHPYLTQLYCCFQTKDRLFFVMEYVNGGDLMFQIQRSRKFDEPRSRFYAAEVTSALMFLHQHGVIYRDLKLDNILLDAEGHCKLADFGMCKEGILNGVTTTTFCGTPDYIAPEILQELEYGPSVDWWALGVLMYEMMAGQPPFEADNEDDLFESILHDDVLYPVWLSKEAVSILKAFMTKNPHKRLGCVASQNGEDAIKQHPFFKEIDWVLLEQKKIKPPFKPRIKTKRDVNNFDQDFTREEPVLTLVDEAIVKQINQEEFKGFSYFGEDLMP
Procedure, shortened: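 Read-out was fluorescence-polarization competition between phosphorylated substrate and a rhodamine PKC tracer for an anti-phosphoserine antibody, added with EDTA stop after an 80 min room-temperature kinase reaction with ATP and protein substrate (Mg2+/Ca2+ buffer). Enzyme (10 ng/ml final) was preincubated with compound for 30 min.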

T1 sequence (O75116 11-552 limits assumed): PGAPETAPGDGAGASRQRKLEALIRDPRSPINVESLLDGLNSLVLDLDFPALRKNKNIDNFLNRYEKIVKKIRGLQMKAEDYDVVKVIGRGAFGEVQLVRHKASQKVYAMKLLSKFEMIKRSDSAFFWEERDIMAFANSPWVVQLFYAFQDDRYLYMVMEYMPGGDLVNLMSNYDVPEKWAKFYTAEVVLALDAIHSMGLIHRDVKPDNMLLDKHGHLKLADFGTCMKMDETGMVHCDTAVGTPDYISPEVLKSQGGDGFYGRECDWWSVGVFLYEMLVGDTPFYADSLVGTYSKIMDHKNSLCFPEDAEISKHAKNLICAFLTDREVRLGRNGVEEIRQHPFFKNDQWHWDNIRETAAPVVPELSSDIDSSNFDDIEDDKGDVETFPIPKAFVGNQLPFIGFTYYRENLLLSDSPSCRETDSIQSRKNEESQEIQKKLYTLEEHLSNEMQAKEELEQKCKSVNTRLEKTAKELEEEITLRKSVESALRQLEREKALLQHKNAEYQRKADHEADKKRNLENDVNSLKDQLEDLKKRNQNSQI

IC50 (human ROCKα/ROCKII mix) | IC50 (PKC epsilon) | Structure (SMILES)
0.5 to 5 µM | 5 to 50 µM | COc1cc(CC(=O)N2CCCC2C(N)c2ccc(C(=O)Nc3ccncc3)cc2)cc(OC)c1OC (centres unmarked) [Compound 532, 4-(Amino-{1-[2-(3,4,5-trimethoxy-phenyl)-acetyl]-pyrrolidin-2-yl}-methyl)-N-pyridin-4-yl-benzamide]
0.5 to 5 µM | 0.5 to 5 µM | NC(c1ccc(C(=O)Nc2ccncc2)cc1)C1CCCN1C(=O)Cc1ccc2ccccc2c1 (centres unmarked) [Compound 535, 4-{Amino-[1-(2-naphthalen-2-yl-acetyl)-pyrrolidin-2-yl]-methyl}-N-pyridin-4-yl-benzamide]
0.5 to 5 µM | 0.5 to 5 µM | NC(c1ccc(C(=O)Nc2ccncc2)cc1)C1CCCN1C(=O)Cc1cccc2ccccc12 (centres unmarked) [Compound 536, 4-{Amino-[1-(2-naphthalen-1-yl-acetyl)-pyrrolidin-2-yl]-methyl}-N-pyridin-4-yl-benzamide]
0.5 to 5 µM | 0.5 to 5 µM | NC(c1ccc(C(=O)Nc2ccncc2)cc1)C1CCCN1C(=O)Cc1ccc(-c2ccccc2)cc1 (centres unmarked) [Compound 537, 4-{Amino-[1-(2-biphenyl-4-yl-acetyl)-pyrrolidin-2-yl]-methyl}-N-pyridin-4-yl-benzamide]
0.5 to 5 µM | 5 to 50 µM | NC(c1ccc(C(=O)Nc2ccncc2)cc1)C1CCCN1C(=O)Cc1ccc(O)c([N+](=O)[O-])c1 (centres unmarked) [Compound 540, 4-(Amino-{1-[2-(4-hydroxy-3-nitro-phenyl)-acetyl]-pyrrolidin-2-yl}-methyl)-N-pyridin-4-yl-benzamide]

Continued, compound first:

Structure (SMILES) | IC50 (human ROCKα/ROCKII mix) | IC50 (PKC epsilon)
Cc1cccc(CC(=O)N2CCCC2C(N)c2ccc(C(=O)Nc3ccncc3)cc2)c1 (centres unmarked) [Compound 524, 4-{Amino-[1-(2-m-tolyl-acetyl)-pyrrolidin-2-yl]-methyl}-N-pyridin-4-yl-benzamide] | 0.5 to 5 µM | 5 to 50 µM
Cc1ccc(CC(=O)N2CCCC2C(N)c2ccc(C(=O)Nc3ccncc3)cc2)cc1 (centres unmarked) [Compound 525, 4-{Amino-[1-(2-p-tolyl-acetyl)-pyrrolidin-2-yl]-methyl}-N-pyridin-4-yl-benzamide] | 0.5 to 5 µM | 0.5 to 5 µM
COc1ccccc1CC(=O)N1CCCC1C(N)c1ccc(C(=O)Nc2ccncc2)cc1 (centres unmarked) [Compound 526, 4-(Amino-{1-[2-(2-methoxy-phenyl)-acetyl]-pyrrolidin-2-yl]-methyl}-N-pyridin-4-yl-benzamide] | 0.5 to 5 µM | 5 to 50 µM
COc1cccc(CC(=O)N2CCCC2C(N)c2ccc(C(=O)Nc3ccncc3)cc2)c1 (centres unmarked) [Compound 527, 4-(Amino-{1-[2-(3-methoxy-phenyl)-acetyl]-pyrrolidin-2-yl}-methyl)-N-pyridin-4-yl-benzamide] | 0.5 to 5 µM | 0.5 to 5 µM
COc1ccc(CC(=O)N2CCCC2C(N)c2ccc(C(=O)Nc3ccncc3)cc2)cc1 (centres unmarked) [Compound 528, 4-(Amino-{1-[2-(4-methoxy-phenyl)-acetyl]-pyrrolidin-2-yl}-methyl)-N-pyridin-4-yl-benzamide] | 0.05 to 0.5 µM | 0.5 to 5 µM
COc1ccc(C2(C(=O)N3CCCC3C(N)c3ccc(C(=O)Nc4ccncc4)cc3)CC2)cc1 (centres unmarked) [Compound 529, 4-(Amino-{1-[1-(4-methoxy-phenyl)-cyclopropanecarbonyl]-pyrrolidin-2-yl}-methyl)-N-pyridin-4-yl-benzamide] | 0.5 to 5 µM | 0.5 to 5 µM
COc1ccc(C2(C(=O)N3CCCC3C(N)c3ccc(C(=O)Nc4ccncc4)cc3)CCCC2)cc1 (centres unmarked) [Compound 530, 4-(Amino-{1-[1-(4-methoxy-phenyl)-cyclopentanecarbonyl]-pyrrolidin-2-yl}-methyl)-N-pyridin-4-yl-benzamide] | 0.5 to 5 µM | 0.5 to 5 µM
COc1ccc(CC(=O)N2CCCC2C(N)c2ccc(C(=O)Nc3ccncc3)cc2)c(OC)c1 (centres unmarked) [Compound 531, 4-(Amino-{1-[2-(2,4-dimethoxy-phenyl)-acetyl]-pyrrolidin-2-yl}-methyl)-N-pyridin-4-yl-benzamide] | 0.5 to 5 µM | 0.5 to 5 µM
